Reference: ChEMBL document CHEMBL5260810, “Inhibition of bromodomain-containing protein 9 for the prevention of epigenetically-defined drug resistance” (Bioorg Med Chem Lett, 2017)
Activity calls are given as the source filed them.

Legend:
[1] = Lipophilicity, log D of the compound at pH 7.4; assay type: physicochemical; conditions: buffer
[2] = system: HCC1954; assay: Antiproliferative activity against human HCC1954 cells assessed as reduction in colony formation at 1 uM supplemented with fresh medium containing compound every 3 days by MTT staining based assay; assay type: functional, cell-based; conditions: time 9.0 day
[3] = system: EB-3; assay: Cytotoxicity against human EB-3 cells measured after 3 days; assay type: functional, cell-based; conditions: EB-3, 72 h
[4] = system: RPMI-8226; assay: Cytotoxicity against human RPMI-8226 cells measured after 3 days; assay type: functional, cell-based; conditions: RPMI-8226, 72 h
[5] = system: SCC-3; assay: Cytotoxicity against human SCC-3 cells measured after 3 days; assay type: functional, cell-based; conditions: SCC-3, 72 h
[6] = Cytotoxicity against human UKE-1 cells measured after 3 days; assay type: functional, cell-based; conditions: UKE1, 72 h
[7] = Cytotoxicity against human HNT-34 cells measured after 3 days; assay type: functional, cell-based; conditions: HNT-34, 72 h
[8] = Cytotoxicity against human JHH-4 cells measured after 3 days; assay type: functional, cell-based; conditions: JHH-4, 72 h
[9] = system: NCI-H2444; assay: Cytotoxicity against human NCI-H2444 cells measured after 3 days; assay type: functional, cell-based; conditions: NCI-H2444, 72 h
[10] = system: HCC95; assay: Cytotoxicity against human HCC95 cells measured after 3 days; assay type: functional, cell-based; conditions: HCC95, 72 h
[11] = system: LP-1; assay: Cytotoxicity against human LP-1 cells measured after 3 days; assay type: functional, cell-based; conditions: LP-1, 72 h
[12] = system: OCI-AML-5; assay: Cytotoxicity against human OCI-AML5 cells measured after 3 days; assay type: functional, cell-based; conditions: OCI-AML-5, 72 h
[13] = Cytotoxicity against human NCE-G 118 cells measured after 3 days; assay type: functional, cell-based; conditions: NCE-G 118, 72 h
[14] = system: T98G; assay: Cytotoxicity against human T98G cells measured after 3 days; assay type: functional, cell-based; conditions: 72 h
[15] = system: NCI-H460; assay: Cytotoxicity against human NCI-H460 cells measured after 3 days; assay type: functional, cell-based; conditions: NCI-H460, 72 h
[16] = system: SUD4; assay: Cytotoxicity against human SU-DHL-4 cells measured after 3 days; assay type: functional, cell-based; conditions: SU-DHL-4, 72 h
[17] = system: MC116; assay: Cytotoxicity against human MC116 cells measured after 3 days; assay type: functional, cell-based; conditions: MC116, 72 h
[18] = Cytotoxicity against human Ci-1 cells measured after 3 days; assay type: functional, cell-based; conditions: Ci-1, 72 h
[19] = Cytotoxicity against human Ri-1 cells measured after 3 days; assay type: functional, cell-based; conditions: Ri-1, 72 h
[20] = system: SU-DHL-5; assay: Cytotoxicity against human SU-DHL-5 cells measured after 3 days; assay type: functional, cell-based; conditions: SU-DHL-5, 72 h
[21] = system: SU-DHL-6; assay: Cytotoxicity against human SU-DHL-6 cells measured after 3 days; assay type: functional, cell-based; conditions: SU-DHL-6, 72 h
[22] = system: EFO-27; assay: Cytotoxicity against human EFO-27 cells measured after 3 days; assay type: functional, cell-based; conditions: EFO-27, 72 h
[23] = system: OAW-42; assay: Cytotoxicity against human OAW-42 cells measured after 3 days; assay type: functional, cell-based; conditions: OAW-42, 72 h
[24] = system: MDA-MB-453; assay: Cytotoxicity against human MDA-MB-453 cells measured after 3 days; assay type: functional, cell-based; conditions: MDA-MB-453, 72 h
[25] = system: MFM-223; assay: Cytotoxicity against human MFM-223 cells measured after 3 days; assay type: functional, cell-based; conditions: MFM-223, 72 h
[26] = system: MX1; assay: Cytotoxicity against human MX1 cells measured after 3 days; assay type: functional, cell-based; conditions: MX1, 72 h
[27] = Cytotoxicity against human SW527 cells measured after 3 days; assay type: functional, cell-based; conditions: SW527, 72 h
[28] = system: AU565; assay: Cytotoxicity against human AU565 cells measured after 3 days; assay type: functional, cell-based; conditions: AU565, 72 h
[29] = Cytotoxicity against human EFM-192A cells measured after 3 days; assay type: functional, cell-based; conditions: 72 h
[30] = Cytotoxicity against human HCC1493 cells measured after 3 days; assay type: functional, cell-based; conditions: HCC1493, 72 h
[31] = system: OVCAR-8; assay: Cytotoxicity against human OVCAR-8 cells measured after 3 days; assay type: functional, cell-based; conditions: OVCAR-8, 72 h
[32] = Cytotoxicity against human OVTOKO cells measured after 3 days; assay type: functional, cell-based; conditions: 72 h
[33] = Cytotoxicity against human COV413B cells measured after 3 days; assay type: functional, cell-based; conditions: 72 h
[34] = system: OAW-28; assay: Cytotoxicity against human OAW28 cells measured after 3 days; assay type: functional, cell-based; conditions: OAW-28, 72 h
[35] = system: OVCAR-5; assay: Cytotoxicity against human OVCAR-5 cells measured after 3 days; assay type: functional, cell-based; conditions: OVCAR-5, 72 h
[36] = Cytotoxicity against human OVSAHO cells measured after 3 days; assay type: functional, cell-based; conditions: 72 h
[37] = system: RMG-I; assay: Cytotoxicity against human RMG-I cells measured after 3 days; assay type: functional, cell-based; conditions: 72 h
[38] = Cytotoxicity against human COV413A cells measured after 3 days; assay type: functional, cell-based; conditions: 72 h
[39] = Cytotoxicity against human COV504 cells measured after 3 days; assay type: functional, cell-based; conditions: COV504, 72 h
[40] = Cytotoxicity against human RKOE6 cells measured after 3 days; assay type: functional, cell-based; conditions: RKOE6, 72 h
[41] = Cytotoxicity against human NCI-H1568 cells after 8 days; assay type: functional, cell-based; conditions: NCI-H1568, 192 h
[42] = Cytotoxicity against human EFM-192C cells measured after 8 days; assay type: functional, cell-based; conditions: 192 h
[43] = system: HBL-100; assay: Cytotoxicity against human HBL-100 cells measured after 8 days; assay type: functional, cell-based; conditions: HBL-100, 192 h
[44] = Cytotoxicity against human HCC3153 cells measured after 8 days; assay type: functional, cell-based; conditions: HCC3153, 192 h
[45] = Cytotoxicity against human NCI-H820 cells measured after 8 days; assay type: functional, cell-based; conditions: NCI-H820, 192 h
[46] = Cytotoxicity against human HCC193 cells after 8 days; assay type: functional, cell-based; conditions: HCC193, 192 h
[47] = system: NCI-H23; assay: Antiproliferative activity against human NCI-H23 cells assessed as reduction in colony formation up to 20 uM supplemented with fresh medium containing compound every 3 days for 9 days by MTT staining based clonogenic assay; assay type: functional, cell-based; conditions: time 9.0 day
[48] = system: NCI-H1299; assay: Antiproliferative activity against human NCI-H1299 cells assessed as reduction in colony formation up to 20 uM supplemented with fresh medium containing compound every 3 days for 9 days by MTT staining based clonogenic assay; assay type: functional, cell-based; conditions: time 9.0 day
[49] = system: Capan-2; assay: Antiproliferative activity against human Capan-2 cells assessed as reduction in colony formation up to 20 uM supplemented with fresh medium containing compound every 3 days for 9 days by MTT staining based clonogenic assay; assay type: functional, cell-based; conditions: time 9.0 day
[50] = system: BT-474; assay: Antiproliferative activity against human BT-474 cells assessed as reduction in colony formation up to 20 uM supplemented with fresh medium containing compound every 3 days for 9 days by MTT staining based clonogenic assay; assay type: functional, cell-based; conditions: time 9.0 day
[51] = system: MCF7; assay: Antiproliferative activity against human MCF7 cells assessed as reduction in colony formation up to 20 uM supplemented with fresh medium containing compound every 3 days for 9 days by MTT staining based clonogenic assay; assay type: functional, cell-based; conditions: time 9.0 day
[52] = system: BT-549; assay: Antiproliferative activity against human BT-549 cells assessed as reduction in colony formation up to 20 uM supplemented with fresh medium containing compound every 3 days for 9 days by MTT staining based clonogenic assay; assay type: functional, cell-based; conditions: time 9.0 day
[53] = system: HMV-2 cell line; assay: Antiproliferative activity against human HMV-2 cell line assessed as reduction in colony formation up to 20 uM supplemented with fresh medium containing compound every 3 days for 9 days by MTT staining based clonogenic assay; assay type: functional; conditions: time 9.0 day
[54] = system: Toledo; assay: Cytotoxicity against human Toledo cells measured after 8 days; assay type: functional, cell-based; conditions: 192 h
[55] = target: GABA-B receptor (Homo sapiens, UniProt O75899+Q9UBS5); assay: Inhibition of human GABA-B receptor at 10 uM relative to control; assay type: protein-complex assay
Chain of GABA-B receptor (Q9UBS5 whole entry): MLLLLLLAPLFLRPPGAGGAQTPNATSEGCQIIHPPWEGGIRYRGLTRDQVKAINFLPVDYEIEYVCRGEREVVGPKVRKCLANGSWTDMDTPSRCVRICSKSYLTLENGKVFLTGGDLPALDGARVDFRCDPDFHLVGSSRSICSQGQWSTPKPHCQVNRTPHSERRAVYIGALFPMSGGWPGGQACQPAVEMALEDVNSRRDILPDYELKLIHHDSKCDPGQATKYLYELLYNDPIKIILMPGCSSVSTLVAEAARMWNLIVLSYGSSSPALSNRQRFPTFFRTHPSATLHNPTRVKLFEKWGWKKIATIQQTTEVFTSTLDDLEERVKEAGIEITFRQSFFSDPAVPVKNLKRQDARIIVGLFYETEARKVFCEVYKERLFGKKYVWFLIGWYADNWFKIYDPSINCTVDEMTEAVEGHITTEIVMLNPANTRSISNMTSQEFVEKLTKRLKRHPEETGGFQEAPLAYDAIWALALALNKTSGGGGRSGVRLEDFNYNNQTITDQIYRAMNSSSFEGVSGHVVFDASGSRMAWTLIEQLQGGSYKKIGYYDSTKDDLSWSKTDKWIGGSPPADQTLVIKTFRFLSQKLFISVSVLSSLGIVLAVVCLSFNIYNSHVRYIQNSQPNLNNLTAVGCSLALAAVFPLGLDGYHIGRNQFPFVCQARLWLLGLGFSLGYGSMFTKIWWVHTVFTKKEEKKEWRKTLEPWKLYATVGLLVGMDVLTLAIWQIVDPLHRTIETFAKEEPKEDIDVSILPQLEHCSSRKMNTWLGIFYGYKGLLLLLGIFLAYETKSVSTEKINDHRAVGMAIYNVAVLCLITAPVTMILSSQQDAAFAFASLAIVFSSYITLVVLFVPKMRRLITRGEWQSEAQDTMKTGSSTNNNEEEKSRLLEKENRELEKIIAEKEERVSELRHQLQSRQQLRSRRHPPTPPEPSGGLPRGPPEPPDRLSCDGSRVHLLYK
Chain of GABA-B receptor (O75899 whole entry): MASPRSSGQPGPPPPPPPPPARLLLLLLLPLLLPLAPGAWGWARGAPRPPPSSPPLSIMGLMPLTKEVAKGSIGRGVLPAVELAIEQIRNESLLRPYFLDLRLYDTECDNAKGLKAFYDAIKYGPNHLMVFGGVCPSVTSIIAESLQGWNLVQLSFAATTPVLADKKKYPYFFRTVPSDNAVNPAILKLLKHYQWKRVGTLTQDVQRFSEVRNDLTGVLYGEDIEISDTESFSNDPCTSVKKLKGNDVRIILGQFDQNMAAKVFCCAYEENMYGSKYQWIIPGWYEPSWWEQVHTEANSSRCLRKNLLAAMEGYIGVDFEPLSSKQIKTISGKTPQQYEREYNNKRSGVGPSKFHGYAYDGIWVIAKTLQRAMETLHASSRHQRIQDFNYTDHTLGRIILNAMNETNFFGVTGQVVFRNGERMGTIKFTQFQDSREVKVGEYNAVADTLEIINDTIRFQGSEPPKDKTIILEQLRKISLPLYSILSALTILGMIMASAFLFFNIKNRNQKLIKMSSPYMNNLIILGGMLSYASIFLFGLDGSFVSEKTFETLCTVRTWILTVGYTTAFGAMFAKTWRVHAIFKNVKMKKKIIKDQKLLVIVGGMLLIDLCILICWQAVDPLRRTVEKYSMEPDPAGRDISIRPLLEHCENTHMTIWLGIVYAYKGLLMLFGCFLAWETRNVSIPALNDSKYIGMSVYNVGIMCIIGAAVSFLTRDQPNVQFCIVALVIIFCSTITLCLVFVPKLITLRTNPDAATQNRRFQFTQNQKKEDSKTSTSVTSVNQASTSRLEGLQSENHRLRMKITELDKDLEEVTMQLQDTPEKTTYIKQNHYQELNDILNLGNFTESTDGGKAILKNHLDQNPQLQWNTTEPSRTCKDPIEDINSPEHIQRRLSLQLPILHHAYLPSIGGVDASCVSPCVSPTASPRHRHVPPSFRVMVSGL

C/C=C/Cn1cc(-c2cc(OC)c(C(=O)N3CCOCC3)cc2OC)c2cc(C)[nH]c2c1=O
inactive: Activity [2]
2.4: logD [1]
5 µM: IC50 [3] | IC50 [4] | IC50 [5] | IC50 [6] | IC50 [7] | IC50 [8] | IC50 [9] | IC50 [10] | IC50 [11] | IC50 [12] | IC50 [13] | IC50 [14] | IC50 [15] | IC50 [16] | IC50 [17] | IC50 [18] | IC50 [19] | IC50 [20] | IC50 [21] | IC50 [22] | IC50 [23] | IC50 [24] | IC50 [25] | IC50 [26] | IC50 [27] | IC50 [28] | IC50 [29] | IC50 [30] | IC50 [31] | IC50 [32] | IC50 [33] | IC50 [34] | IC50 [35] | IC50 [36] | IC50 [37] | IC50 [38] | IC50 [39] | IC50 [40]
2 µM: IC50 [41] | IC50 [42] | IC50 [43] | IC50 [44] | IC50 [45] | IC50 [46]

C/C=C/Cn1cc(-c2ccc(C(C)(C)O)cc2OC)c2cc[nH]c2c1=O
4 µM: IC50 [55]
20 µM: IC50 [54]
inactive: Activity [47] | Activity [48] | Activity [49] | Activity [50] | Activity [51] | Activity [52] | Activity [53]
